According to US20220016277A1, “MACROCYCLIC COMPLEXES OF RADIONUCLIDES AND THEIR USE IN RADIOTHERAPY OF CANCER” (Cornell University, priority 2018, published 2022):

Experiment: Organ distribution of ^225Ac complexes following intravenous injection in mice
Format: in vivo, C57BL/6 mice
Method: In Vivo Biodistribution of ^225Ac Complexes of Macropa and DOTA. All experiments were approved by the Institutional Animal Care Committee (IACC) of the University of British Columbia and were performed in accordance with the Canadian Council on Animal Care Guidelines. A total of 9 female C57BL/6 mice (6-8 weeks old, 20-25 g) were used for the biodistribution study of each radiometal complex, n=3 for each time point.
Macropa (100 μL of a 1 mg/mL solution in NH4OAc) was diluted with 387 μL of NH4OAc (1 M, pH 7), and an aliquot (203 μL) of ^225Ac(NO3)3 (˜157 kBq) was then added; the pH of this solution was adjusted to 6.5-7 by the addition of 1 M NaOH (210 μL, trace metal grade). After 5 min at ambient temperature, the reaction solution was analyzed by TLC (0.4 M pH 4 sodium citrate as the eluent), which confirmed >95% radiochemical yield. The reaction was allowed to proceed overnight, and the radiochemical yield was again confirmed to be >95% the following morning. At this time, mice were anesthetized by 2% isoflurane, and approximately 100 μL (10-15 kBq) of the [^225Ac(macropa)]^+ complex were injected into the tail vein of each mouse. After injection, mice were allowed to recover and roam freely in their cages, and were euthanized by CO2 inhalation at 15 min, 1 h, or 5 h (n=3 at each time point) post-injection. Blood was collected by cardiac puncture and placed into an appropriate test tube for scintillation counting. Tissues collected included heart, liver, kidneys, lungs, small intestine, large intestine, brain, bladder, spleen, stomach, pancreas, bone, thyroid, tail, urine, and feces. Tissues were weighed and then counted with a calibrated gamma counter (Packard, Cobra II model 5002) using three energy windows: 60-120 keV (window A), 180-260 keV (window B), and 400-480 keV (window C). Counting was performed both immediately after sacrifice and after 7 days; counts were decay corrected from the time of injection and then converted to the percentage of injected dose (% ID) per gram of tissue (% ID/g). […]
The biodistribution studies of [^225Ac(DOTA)]^− and ^225Ac(NO3)3 were carried out as described above for [^225Ac(macropa)]^+, with the following modifications. [^225Ac(DOTA)^− was prepared by adding ^225Ac(NO3)3 (338 μL, 1.1 MBq) to a solution of DOTA (100 μg, 20 mg/mL in H2O) in NH4OAc (467 μL, 0.15 M, pH 7). The pH of the solution was adjusted to 7 using NH4OAc (150 μL, 1 M, pH 7) and the solution was heated at 85° C. for 45 min. RCY >99% was confirmed by TLC as described above. [^225Ac(DOTA)]^− was diluted with saline to a final concentration of 0.05 MBq/100 μL, and 100 μL were injected into each mouse. ^225Ac(NO3)3 (˜58 μL, 0.4 MBq) was diluted and injected in the same manner as [^225Ac(DOTA)]^−. One mouse that was to be euthanized at the 5 h time point in the [^225Ac(DOTA)]^− study died shortly after injection. In the same manner, one mouse that was to be euthanized at the 1 h time point in the ^225Ac(NO3)3 study died.
The in vivo stability [^225Ac(macropa)]^+ was examined by comparing its biodistribution to those of ^225Ac(NO3)3 and [^225Ac(DOTA)]^−. C57BL/6 mice were injected via tail vein with 10-50 kBq of each radiometal complex and were sacrificed after 15 min, 1 h, or 5 h. The amount of ^225Ac retained in each organ was quantified by gamma counting and reported as the percent of injected dose per gram of tissue (% ID/g). The results of these studies are compiled in Tables 1-3. Inadequate stability of an ^225Ac complex leading to the loss of radioisotope in vivo is manifested by the accumulation of ^225Ac in the liver, spleen, and bone of mice.^[11,12,32] […] The biodistribution profile of [^225Ac(macropa)]^+ (FIG. 3B) differs markedly from that of ^225Ac(NO3)3. […] Its biodistribution profile was similar to that of [^225Ac(DOTA)]^− (FIG. 3C), which has been previously shown to retain ^225Ac^3+ in vivo.^[7]

[1] = 15 min post i.v. injection, energy window A (60-120 keV)
[2] = 15 min post i.v. injection, energy window B (180-260 keV)
[3] = 15 min post i.v. injection, energy window C (400-480 keV)
[4] = 1 h post i.v. injection, energy window A (60-120 keV)
[5] = 1 h post i.v. injection, energy window B (180-260 keV)
[6] = 1 h post i.v. injection, energy window C (400-480 keV)
[7] = 5 h post i.v. injection, energy window A (60-120 keV)
[8] = 5 h post i.v. injection, energy window B (180-260 keV)
[9] = 5 h post i.v. injection, energy window C (400-480 keV)
[10] = C57BL/6 mice, i.v., 15 min to 5 h

O=C([O-])c1cccc(CN2CCOCCOCCN(Cc3cccc(C(=O)[O-])n3)CCOCCOCC2)n1.[225Ac+3] [[^225Ac(macropa)]^+]
Organ distribution: bladder [1]: 46.74 % ID/g
Organ distribution: blood [1]: 5.11 % ID/g
Organ distribution: bone (femur + joint) [1]: 2.52 % ID/g
Organ distribution: brain [1]: 0.26 % ID/g
Organ distribution: feces [1]: 0.91 % ID/g
Organ distribution: heart [1]: 2.19 % ID/g
Organ distribution: kidneys [1]: 27.55 % ID/g
Organ distribution: large intestines [1]: 2.40 % ID/g
Organ distribution: liver [1]: 2.28 % ID/g
Organ distribution: lungs [1]: 5.98 % ID/g
Organ distribution: pancreas [1]: 1.46 % ID/g
Organ distribution: small intestines [1]: 2.64 % ID/g
Organ distribution: spleen [1]: 2.52 % ID/g
Organ distribution: stomach [1]: 2.97 % ID/g
Organ distribution: tail [1]: 8.84 % ID/g
Organ distribution: thyroids [1]: 28.23 % ID/g
Organ distribution: urine [1]: 1378.82 % ID/g
Organ distribution: bladder [2]: 47.64 % ID/g
Organ distribution: blood [2]: 5.23 % ID/g
Organ distribution: bone (femur + joint) [2]: 2.69 % ID/g
Organ distribution: brain [2]: 0.23 % ID/g
Organ distribution: feces [2]: 1.04 % ID/g
Organ distribution: heart [2]: 2.39 % ID/g
Organ distribution: kidneys [2]: 27.86 % ID/g
Organ distribution: large intestines [2]: 2.53 % ID/g
Organ distribution: liver [2]: 2.17 % ID/g
Organ distribution: lungs [2]: 5.83 % ID/g
Organ distribution: pancreas [2]: 1.63 % ID/g
Organ distribution: small intestines [2]: 2.59 % ID/g
Organ distribution: spleen [2]: 2.55 % ID/g
Organ distribution: stomach [2]: 3.29 % ID/g
Organ distribution: tail [2]: 9.39 % ID/g
Organ distribution: thyroids [2]: −2.22 % ID/g
Organ distribution: urine [2]: 1541.60 % ID/g
Organ distribution: bladder [3]: 64.68 % ID/g
Organ distribution: blood [3]: 6.49 % ID/g
Organ distribution: bone (femur + joint) [3]: 3.74 % ID/g
Organ distribution: brain [3]: 0.17 % ID/g
Organ distribution: feces [3]: 1.26 % ID/g
Organ distribution: heart [3]: 2.87 % ID/g
Organ distribution: kidneys [3]: 33.46 % ID/g
Organ distribution: large intestines [3]: 3.02 % ID/g
Organ distribution: liver [3]: 2.72 % ID/g
Organ distribution: lungs [3]: 7.55 % ID/g
Organ distribution: pancreas [3]: 3.00 % ID/g
Organ distribution: small intestines [3]: 3.46 % ID/g
Organ distribution: spleen [3]: 3.79 % ID/g
Organ distribution: stomach [3]: 3.45 % ID/g
Organ distribution: tail [3]: 11.75 % ID/g
Organ distribution: thyroids [3]: −6.46 % ID/g
Organ distribution: urine [3]: 2387.66 % ID/g
Organ distribution: bladder [4]: 6.23 % ID/g
Organ distribution: blood [4]: 0.40 % ID/g
Organ distribution: bone (femur + joint) [4]: 0.31 % ID/g
Organ distribution: brain [4]: 0.12 % ID/g
Organ distribution: feces [4]: 0.28 % ID/g
Organ distribution: heart [4]: 0.31 % ID/g
Organ distribution: kidneys [4]: 13.36 % ID/g
Organ distribution: large intestines [4]: 0.36 % ID/g
Organ distribution: liver [4]: 0.75 % ID/g
Organ distribution: lungs [4]: 0.51 % ID/g
Organ distribution: pancreas [4]: 0.19 % ID/g
Organ distribution: small intestines [4]: 1.10 % ID/g
Organ distribution: spleen [4]: 0.51 % ID/g
Organ distribution: stomach [4]: 0.41 % ID/g
Organ distribution: tail [4]: 1.82 % ID/g
Organ distribution: thyroids [4]: 3.18 % ID/g
Organ distribution: urine [4]: 489.11 % ID/g
Organ distribution: bladder [5]: 5.92 % ID/g
Organ distribution: blood [5]: 0.39 % ID/g
Organ distribution: bone (femur + joint) [5]: 0.17 % ID/g
Organ distribution: brain [5]: 0.12 % ID/g
Organ distribution: feces [5]: 0.27 % ID/g
Organ distribution: heart [5]: 0.20 % ID/g
Organ distribution: kidneys [5]: 12.97 % ID/g
Organ distribution: large intestines [5]: 0.22 % ID/g
Organ distribution: liver [5]: 0.70 % ID/g
Organ distribution: lungs [5]: 0.54 % ID/g
Organ distribution: pancreas [5]: 0.12 % ID/g
Organ distribution: small intestines [5]: 0.94 % ID/g
Organ distribution: spleen [5]: 0.23 % ID/g
Organ distribution: stomach [5]: 0.33 % ID/g
Organ distribution: tail [5]: 1.82 % ID/g
Organ distribution: thyroids [5]: 0.10 % ID/g
Organ distribution: urine [5]: 517.19 % ID/g
Organ distribution: bladder [6]: 9.00 % ID/g
Organ distribution: blood [6]: 0.54 % ID/g
Organ distribution: bone (femur + joint) [6]: 0.70 % ID/g
Organ distribution: brain [6]: 0.23 % ID/g
Organ distribution: feces [6]: 0.69 % ID/g
Organ distribution: heart [6]: 0.23 % ID/g
Organ distribution: kidneys [6]: 17.38 % ID/g
Organ distribution: large intestines [6]: 0.79 % ID/g
Organ distribution: liver [6]: 1.08 % ID/g
Organ distribution: lungs [6]: 0.84 % ID/g
Organ distribution: pancreas [6]: 0.43 % ID/g
Organ distribution: small intestines [6]: 1.62 % ID/g
Organ distribution: spleen [6]: 0.48 % ID/g
Organ distribution: stomach [6]: 0.17 % ID/g
Organ distribution: tail [6]: 2.57 % ID/g
Organ distribution: thyroids [6]: 8.34 % ID/g
Organ distribution: urine [6]: 641.63 % ID/g
Organ distribution: bladder [7]: 4.25 % ID/g
Organ distribution: blood [7]: 0.01 % ID/g
Organ distribution: bone (femur + joint) [7]: 0.05 % ID/g
Organ distribution: brain [7]: 0.02 % ID/g
Organ distribution: feces [7]: 3.46 % ID/g
Organ distribution: heart [7]: 0.10 % ID/g
Organ distribution: kidneys [7]: 0.74 % ID/g
Organ distribution: large intestines [7]: 0.49 % ID/g
Organ distribution: liver [7]: 0.39 % ID/g
Organ distribution: lungs [7]: 0.01 % ID/g
Organ distribution: pancreas [7]: 0.10 % ID/g
Organ distribution: small intestines [7]: 0.29 % ID/g
Organ distribution: spleen [7]: 0.11 % ID/g
Organ distribution: stomach [7]: 0.01 % ID/g
Organ distribution: tail [7]: 0.14 % ID/g
Organ distribution: thyroids [7]: 0.10 % ID/g
Organ distribution: urine [7]: 12.78 % ID/g
Organ distribution: bladder [8]: 3.69 % ID/g
Organ distribution: blood [8]: 0.00 % ID/g
Organ distribution: bone (femur + joint) [8]: 0.02 % ID/g
Organ distribution: brain [8]: −0.01 % ID/g
Organ distribution: feces [8]: 3.49 % ID/g
Organ distribution: heart [8]: −0.04 % ID/g
Organ distribution: kidneys [8]: 0.78 % ID/g
Organ distribution: large intestines [8]: 0.45 % ID/g
Organ distribution: liver [8]: 0.36 % ID/g
Organ distribution: lungs [8]: −0.05 % ID/g
Organ distribution: pancreas [8]: −0.12 % ID/g
Organ distribution: small intestines [8]: 0.29 % ID/g
Organ distribution: spleen [8]: 0.09 % ID/g
Organ distribution: stomach [8]: 0.04 % ID/g
Organ distribution: tail [8]: 0.13 % ID/g
Organ distribution: thyroids [8]: −6.94 % ID/g
Organ distribution: urine [8]: 13.51 % ID/g
Organ distribution: bladder [9]: 8.52 % ID/g
Organ distribution: blood [9]: 0.04 % ID/g
Organ distribution: bone (femur + joint) [9]: 0.08 % ID/g
Organ distribution: brain [9]: −0.01 % ID/g
Organ distribution: feces [9]: 5.27 % ID/g
Organ distribution: heart [9]: 0.28 % ID/g
Organ distribution: kidneys [9]: 1.07 % ID/g
Organ distribution: large intestines [9]: 0.68 % ID/g
Organ distribution: liver [9]: 0.55 % ID/g
Organ distribution: lungs [9]: 0.15 % ID/g
Organ distribution: pancreas [9]: 0.13 % ID/g
Organ distribution: small intestines [9]: 0.42 % ID/g
Organ distribution: spleen [9]: 0.43 % ID/g
Organ distribution: stomach [9]: 0.13 % ID/g
Organ distribution: tail [9]: 0.28 % ID/g
Organ distribution: thyroids [9]: 19.89 % ID/g
Organ distribution: urine [9]: 22.27 % ID/g
blood clearance and excretion (in words) [10]: rapidly cleared from mice
organ accumulation (in words) [10]: did not accumulate in any organ
